Consider one compound from patent US8846951B2 (AbbVie Inc., priority 2009, dated 2014).

In series [1] the test system is AMP- or PCP-induced hyperactivity. Description: Psychostimulant (AMP or PCP)-induced hyperlocomotion in mice. The class given is in vivo, mouse. The conditions noted are these: test compound ip 30 min before d-amphetamine 2.0 mg/kg sc. The source says:
(x) Assessment of Effects on Psychostimulant-Induced Hyperlocomotion in Mice
In both humans and experimental animals amphetamine (AMP) profoundly affects motor activity, sensorimotor function, sleep, attention, aggressive and sexual behaviors, learning and memory, operant behaviors, appetite and food intake. In addition, amphetamine induces psychotic reactions in normal individuals and exacerbates symptoms of schizophrenia in patients. In experimental animals several distinct behaviors are considered to be correlates of amphetamine psychosis. For example, amphetamine-induced hyperactivity in rodents is believed to model the psychotic symptoms of schizophrenia. Reversal of these behaviors is used to predict potential antipsychotic activity of drugs in pre-clinical studies.
In humans, phencyclidine (PCP) is known to produce a syndrome of behavioral effects which have many characteristics in common with schizophrenia. Therefore, antagonism of PCP effects might be evidence for antipsychotic efficacy of a compound.
Male NMRI mice (5-week old, Janvier, France) or C57BL/6J mice (6-week old, Janvier, France) were group housed and allowed ad-libitum access to food and water. A 12 hour light/dark cycle was imposed with lights-on period between 0530 and 1730 hours. All testing occurred between 700 and 1300 hours. All procedures were approved by Abbott Institutional Animal Care and Use Committee (USA) or Animal Welfare Officer (Germany) and were conducted in accordance with the National Institutes of Health Guide for Care and Use of Laboratory Animals guidelines and applicable national laws in the facilities accredited by the Association for the Assessment and Accreditation of Laboratory Animal Care.
On the day of experiment, animals were brought from the animal facility into the experimental room and were allowed to acclimatize for at least 30 minutes. Animals were then placed in the test cages for a habituation period of 60 minutes. The animals were then injected ip with the test compound and returned to the test cage. 30 Minutes later the mice were injected with d-amphetamine (2.0 mg/kg, AMP, Sigma, #A5880, sc) or phencyclidine (2.0 mg/kg, PCP, Sigma, #P3029, sc) Sigma, and returned to the test cages for 90 minutes. Each treatment group consisted of 8-10 animals. The data was acquired by Cage rack Photobeam system (SDI, San Diego Instruments, CA). The analyzed data were: fine movements, ambulations and total movements (fine+ambulations). Data was subjected to one- or two-way distribution-free ANOVA followed by Dunnett's and Tukey's post hoc tests.

Series [2] deals with conditioned avoidance response (CAR) behavior. The experiment in a line: Conditioned avoidance responding in rats. The class given is in vivo, rat. The conditions noted are these: male Wistar rats. Here is the method:
The fact that antipsychotics have the unique ability to selectively suppress CAR behavior, made the CAR test a useful tool for the screening of new, potentially antipsychotic compounds. […] Animals Male Wistar rats (9-11 weeks old, Charles River, Germany) were pair-housed and allowed ad-libitum access to food and water. A 12-hour light/dark cycle was imposed with lights-on period between 0530 and 1730 hours. All testing occurred between 700 and 1300 hours. All procedures were approved by Abbott Institutional Animal Care and Use Committee (USA) or Animal Welfare Officer (Germany) and were conducted in accordance with the National Institutes of Health Guide for Care and Use of Laboratory Animals guidelines and applicable national laws in the facilities accredited by the Association for the Assessment and Accreditation of Laboratory Animal Care. Methods Wistar rats are exposed to a conditioned stimulus CS (a 2.9-kHz tone of 10 second duration), which is a signal for the animal that it must move into the other chamber in order to avoid an immediately ensuing footshock US (0.5 mA, 10 second, tone continues during shock presentation). Once the shock has begun, the animal can still escape it by moving to the other chamber. Each session is limited to a maximum of 40 trials (intertrial interval 10-90 seconds). The animals generally learn quickly to change chambers upon the conditioned stimulus and thus avoid further shocks. Scored are: • Avoided responses=crossings into other compartment within 10 seconds of tone presentation; • Escaped responses=crossings between 10-20 seconds of tone presentation; • Failures=crossings after cessation of tone-shock presentation or no crossing. […] At the test sessions (=CS-shock pairings), animals are pre-treated with a test drug or vehicle 30 minutes before commencement of the session.

The target of another series is T1, 5HT2B receptors (Homo sapiens, UniProt P41595).
T1 construct: expressed in transfected cells; host or cells: CHO-K1 cells
T1 sequence (P41595 whole entry): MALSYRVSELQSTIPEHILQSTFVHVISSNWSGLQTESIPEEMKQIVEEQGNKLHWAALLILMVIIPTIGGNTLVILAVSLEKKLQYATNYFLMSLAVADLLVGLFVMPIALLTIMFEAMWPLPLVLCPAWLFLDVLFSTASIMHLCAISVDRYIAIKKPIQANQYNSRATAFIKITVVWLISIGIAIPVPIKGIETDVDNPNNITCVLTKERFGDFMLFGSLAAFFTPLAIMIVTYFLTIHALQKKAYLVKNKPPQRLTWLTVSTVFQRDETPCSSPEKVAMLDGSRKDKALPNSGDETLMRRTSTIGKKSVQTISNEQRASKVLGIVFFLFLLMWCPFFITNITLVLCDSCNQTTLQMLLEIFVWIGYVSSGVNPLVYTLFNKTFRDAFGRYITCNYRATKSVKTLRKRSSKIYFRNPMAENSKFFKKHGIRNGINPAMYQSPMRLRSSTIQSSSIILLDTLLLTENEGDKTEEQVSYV
The experiment in a line: Human 5-HT2B functional high throughput screening assay in CHO-K1 cells (calcium flux). It counts as cell-based. In a few lines: (§1)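 Serum-starved CHO-K1 cells carrying the receptor; Ca4 dye, 60 min RT. Test compound added after a 10 s baseline, fluorescence followed for 3 min. EC50 from 4-parameter fit; Emax given as % of serotonin effect.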

A further series has as its target T2, 5HT2C receptors (Homo sapiens, UniProt P28335).
T2 sequence (P28335 33-458): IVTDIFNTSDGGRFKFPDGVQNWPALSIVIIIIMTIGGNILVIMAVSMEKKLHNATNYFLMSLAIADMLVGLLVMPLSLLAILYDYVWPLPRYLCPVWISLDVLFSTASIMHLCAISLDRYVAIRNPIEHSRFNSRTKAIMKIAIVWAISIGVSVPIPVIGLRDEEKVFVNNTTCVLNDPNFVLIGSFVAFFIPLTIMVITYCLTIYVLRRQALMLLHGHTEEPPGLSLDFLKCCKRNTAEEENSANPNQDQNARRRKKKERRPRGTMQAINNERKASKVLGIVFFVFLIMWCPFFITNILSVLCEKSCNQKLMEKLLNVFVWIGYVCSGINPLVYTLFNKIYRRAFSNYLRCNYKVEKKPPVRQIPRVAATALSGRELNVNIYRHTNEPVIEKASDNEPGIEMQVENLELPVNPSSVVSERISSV
The experiment in a line: Human 5-HT2C functional high throughput screening assay in CHO-K1 cells (calcium flux). The class given is cell-based. More on the design: expressed in transfected cells; host or cells: CHO-K1 cells. In outline:
as §1

“Also recorded” adds a separate entry of the source.

For `COc1ccc(-c2ccc3c(c2)C(=O)NC[C@H]2CN(C)C[C@H]32)cc1` [Example 158, (3aS,10bS)-8-(4-Methoxyphenyl)-2-methyl-1,2,3,3a,4,5-hexahydrobenzo[e]pyrrolo[3,4-c]azepin-6(10bH)-one], the AMP-induced hyperactivity entry in series [1] was “attenuated AMP-induced hyperactivity in mice significantly and in a dose dependent manner; also recorded: attenuating the affect of d-amphetamine (AMP)”. The “conditioned avoidance behavior (avoided responses)” value in series [2] (acute, 30 minutes before session) is on record as “significantly suppressed conditioned avoidance behavior”. In series [2] (indicator of sedation or extrapyramidal side effects), the number of failures result is given as “without affecting the number of failures”. Besides, the EC50 at 5HT2B receptors (5-HT2B agonist activity, CHO-K1 cells, calcium flux, read-out: EC50) was over 10000 nM; at 5HT2C receptors (5-HT2C agonist activity, CHO-K1 cells, calcium flux, read-out: EC50), 0.6 nM. Besides, the maximal effect (Emax) entry at 5HT2B receptors (5-HT2B, maximum functional response as percentage relative to the effect of serotonin) is “inactive”; at 5HT2C receptors (CHO-K1, 5-HT2C, maximum functional response as percentage relative to the effect of serotonin, read-out: Emax), over 120%.
